# Assays:
# plasma glucose = test: Intravenous glucose tolerance test (IVGTT) in Type 2 diabetic cynomolgus monkeys; format: in vivo; settings: plasma glucose at 0, 5, 15 and 30 min; 2 hours after treatment vs one week before
# Procedure: (§1) The efficacy and pharmacokinetics of MEB-C3-Cys40-Extendin 4 (Abextide II) was studied in primates. Nine Type 2 diabetic cynomolgus monkeys were separated into 3 groups and each group was injected with one of albiglutide (positive control, 0.9 mg/kg), Abextide II (165 μg/kg), or a saline placebo, as a one-time subcutaneous injection. The structure of Abextide II is shown below.
# (§2) Plasma glucose levels and body weight were measured, and an intravenous glucose tolerance test (IVGTT) was also performed to assess the efficacy and pharmacokinetics of the compounds.
# Intravenous glucose tolerance test was performed on all animals one week before (baseline) and 2 hours after treatment. […] The areas under curve (AUCs) of the plasma glucose level at 0, 5, 15 and 30 min were calculated to quantify IVGTT.
# blood glucose = test: Plasma glucose levels in Type 2 diabetic cynomolgus monkeys; format: in vivo; settings: one-time s.c. injection; Abextide II 165 ug/kg, albiglutide 0.9 mg/kg; compared to placebo
# Procedure: as §1, §2
substance,measurement,setting,value
Albiglutide,IVGTT area under curve (AUC) of plasma glucose level versus baseline before treatment,plasma glucose,significant differences were not observed
same,reduction of blood glucose level,blood glucose,unable to reduce blood glucose level
